“And” between values parts separate entries of the source, which are not always exact repeats. Identical values can stand only once. “Also recorded” adds a separate entry of the source. Like-named read-outs stand apart in the source and are kept apart here.
Experiments:
[1] = oral; 9 (ref 1, 11); cited from earlier work
[2] = cited from earlier work
[3] = Optimized value, updated based on literature data ref 1, 32; cited from earlier work
clinical = details: human, plasma; for clearance: Cltot; for half-life: T 1/2el; for Vd: V d; for AUC(0-t): 100 mg p.o.
Source text: Patients eligible for this phase 1b study suffered from histologically or cytologically documented adenocarcinoma of the pancreas with locally advanced not radically resectable or metastatic disease. […] All concomitant medication was reported and the intake of drugs inhibiting or inducing CYP3A4 was prohibited during the study, along with medication specifically contraindicated to one of the three study drugs [1, 23, 24]. All patients were asked to keep a diary during their treatment, containing co-medication and health status to retrace possible interactions and treatment failures.
Patients had been informed about the aim of this investigation and had given their written consent.
For the pharmacokinetic analysis of plasma concentration data on day 1, Phoenix WinNonlin version 6.2.1 software (Pharsight Corporation, a Certara™ company) was used to calculate the PK parameters Cpeak, Ctrough, Tmax, AUC0–24 as well as the volume of distribution (Vd), total body clearance (Cltot) and terminal half-life (T1/2el). […] From day 2 until day 8, the trough and peak concentrations were analyzed, but only the trough concentrations were evaluated until the end of the study. The parameters were calculated as arithmetic mean ± SD and the range (min–max) was calculated for comparison to the simulation output.

[4] = system: plasma proteins, mainly albumin and α-1 acid glycoprotein; details: cited from earlier work
[5] = Day 3, observed, 100 mg p.o. q.d., n=26
[6] = Day 6 (steady state), observed, 100 mg p.o. q.d., n=26
[7] = co-administered ARAs, study population
[8] = oral, mean ± SD, Day 1, observed, n=26, calculated with a bioavailability of 60%
[9] = oral, min–max, Day 1, observed, n=26
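Wherever C last (trough at 24 h), mean ± SD is given: plasma pharmacokinetics in a phase 1b study of patients with locally advanced or metastatic pancreatic adenocarcinoma.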
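Wherever C peak, mean ± SD is given: plasma pharmacokinetics in a phase 1b study of patients with locally advanced or metastatic pancreatic adenocarcinoma.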
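Wherever C trough, mean ± SD is given: plasma pharmacokinetics in a phase 1b study of patients with locally advanced or metastatic pancreatic adenocarcinoma.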
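Wherever T max, median is given: plasma pharmacokinetics in a phase 1b study of patients with locally advanced or metastatic pancreatic adenocarcinoma.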

SMILES: C#Cc1cccc(Nc2ncnc3cc(OCCOC)c(OCCOC)cc23)c1 [erlotinib]
- Bioavailability (estimated) [1]: 60%
- C peak, mean ± SD (Day 1, observed, 100 mg erlotinib p.o. q.d., patients n=26, arithmetic mean): 0.84 µg/mL and 0.84 ± 0.54 µg/mL
- C last (trough at 24 h), mean ± SD (Day 1, observed, 100 mg p.o. q.d., n=26): 330 ± 290 ng/mL
- T max, median (Day 1, observed, 100 mg p.o., n=26): 2.00 h
- C peak, mean ± SD [5]: 1.04 ± 0.62 µg/mL
- C trough, mean ± SD [5]: 450 ± 370 ng/mL
- C peak, mean ± SD [6]: 1.38 µg/mL and 1.38 ± 0.66 µg/mL
- C trough, mean ± SD [6]: 720 ng/mL and 720 ± 530 ng/mL
- Mean trough concentration ± SD (Pat.3, weeks 1–50, N=50, 100 mg q.d.): 0.89 ± 0.68 µg/mL
- Mean trough concentration ± SD (Pat.4, weeks 1–8, N=7, 100 mg q.d.): 0.66 ± 0.27 µg/mL
- Mean trough concentration ± SD (Pat.5, co-medication of acid reducing agents, weeks 1–4, N=4, 100 mg q.d.): 0.37 ± 0.09 µg/mL
- Mean trough concentration ± SD (Pat.6, weeks 1–8, N=8, 100 mg q.d.): 1.78 ± 0.74 µg/mL
- Mean trough concentration ± SD (Pat.7, weeks 1–9, N=9, 100 mg q.d.): 1.20 ± 0.51 µg/mL
- Reduction of AUC0–24 [7]: 52%
- Reduction of Cmax [7]: 56%
- Patients with concentrations below the activity threshold of 0.5 µg/ml (during the first week): 7%
- Patients that never reached the threshold of 0.5 µg/ml (first week of erlotinib therapy): 2 of the 26 patients
- Patients with Ctrough values below the activity threshold (long-term analysis, all received ARAs concomitantly): 5 of the 10 patients
- Accumulation of erlotinib in plasma (long-term monitoring up to 50 weeks, 100 mg q.d.): did not show any significant accumulation; also recorded: did not lead to drug accumulation
- Patients that did not reach the threshold of 0.5 µg/ml (within 24 h after the first administration): 10 of the 26 patients
- Solubility in water ([2]; free base): only very slightly soluble in water
- Biopharmaceutics Classification System (BCS) class ([2]; low solubility, high permeability): class II
- pKa ([2]; weak base, limited solubility at pH above it): 5.4
- Basic pKa [3]: 5.4
- Intrinsic solubility [3]: 8.9 µg/mL
- clearance (clinical; [8]): 91.8 mL/min
- clearance (clinical; [9]): 7.83 to 502 mL/min
- concentration at 24 h (clinical; oral, Mean erlotinib trough concentrations calculated for each patient, range, long-term study, 10 patients, 100 mg q.d.): 60 to 1780 ng/mL
- concentration at 24 h (clinical; oral, Mean trough concentration ± SD, Pat.1, weeks 1–15, N=10, 100 mg erlotinib q.d.): 1670 ± 440 ng/mL
- concentration at 24 h (clinical; oral, Mean trough concentration ± SD, Pat.10, co-medication of acid reducing agents, weeks 1–11, N=11, 100 mg q.d.): 160 ± 60 ng/mL
- concentration at 24 h (clinical; oral, Mean trough concentration ± SD, Pat.2, co-medication of acid reducing agents, weeks 1–9, N=9, 100 mg q.d.): 160 ± 40 ng/mL
- concentration at 24 h (clinical; oral, Mean trough concentration ± SD, Pat.8, co-medication of acid reducing agents, weeks 1–16, N=16, 100 mg q.d.): 270 ± 380 ng/mL
- concentration at 24 h (clinical; oral, Mean trough concentration ± SD, Pat.9, co-medication of acid reducing agents, weeks 1–50, N=47, 100 mg q.d.): 60 ± 40 ng/mL
- half-life (clinical; oral, mean ± SD, Day 1, observed, n=26): 18.7 ± 13.1 h
- half-life (clinical; [9]): 4.1 to 59 h
- concentration at 24 h (clinical; oral, Trough concentration min–max, Pat.1, weeks 1–15, N=10, 100 mg erlotinib q.d.): 770 to 2200 ng/mL
- concentration at 24 h (clinical; oral, Trough concentration min–max, Pat.10, co-medication of acid reducing agents, weeks 1–11, N=11, 100 mg q.d.): 70 to 310 ng/mL
- concentration at 24 h (clinical; oral, Trough concentration min–max, Pat.8, co-medication of acid reducing agents, weeks 1–16, N=16, 100 mg q.d.): 20 to 1310 ng/mL
- concentration at 24 h (clinical; oral, Trough concentration min–max, Pat.9, co-medication of acid reducing agents, weeks 1–50, N=47, 100 mg q.d.): 10 to 160 ng/mL
- concentration at 24 h (clinical; oral, Trough plasma concentrations, range, long-term assessment (up to 50 weeks), 100 mg q.d., 10 patients): 10 to 2400 ng/mL
- Vd (clinical; [8]): 97.9 ± 61.7 L
- Vd (clinical; [9]): 18 to 268 L
- Tmax (clinical; po, 100 mg): 1 to 8 h
- AUC(0-t) (clinical; po, 100 mg, AUC0–24, mean ± SD, Day 1, observed, n=26): 12500 ± 9380 ng·h/mL
- AUC(0-t) (clinical; po, 100 mg, AUC0–24, min–max, Day 1, observed, n=26): 1230 to 36400 ng·h/mL
- concentration at 24 h (clinical; po, C last (trough at 24 h), mean ± SD, Day 1, observed, 100 mg p.o. q.d., n=26): 330 ng/mL
- concentration at 24 h (clinical; po, C last (trough at 24 h), min–max, Day 1, observed, 100 mg p.o. q.d., n=26): 40 to 1220 ng/mL
- Bound to plasma proteins [4]: approximately 95%

From article PMC5854746 (Cancer Chemotherapy and Pharmacology, 2018)
